{"source": "patent US20240209376A1", "about": "“Specific Oligonucleotide-Programmed Readthrough of Nonsense Codons” (UNIVERSITY OF MASSACHUSETTS, priority 2021, published 2024)", "key": {"[1]": {"conditions": "cited from earlier work"}, "[2]": {"tested_on": "CFTR premature stop codon (G542X; UGAC, UGAG) mRNA", "experiment": "511-565 CFTR nanoluciferase construct readthrough (RRL assay)", "assay_type": "biochemical", "conditions": "for readthrough promotion by fluoride-modified oligos: RRL assay", "description": "(§1) FIG. 6 presents one embodiment of a cystic fibrosis gene/nanoluciferase expression construct (511-565 CFTR). Upper panel: A schematic of the construct showing the relative position of a premature stop codon (UGAG or UGAC) within a cystic fibrosis open reading frame (CFTR) and a luciferase gene with a natural terminal stop codon. Lower panel: A deoxyribonucleic acid sequence of the CFTR construct with a TGA premature stop codon and a deoxyribonucleic acid oligo hybridized to the CFTR construct at the +8 nucleotide position downstream of the premature stop codon.\nIn one embodiment, the present invention contemplates a modified cystic fibrosis transmembrane conductance regulator (CFTR) deoxyribonucleic acid (DNA) construct. In one embodiment, the modified CFTR DNA construct comprises a CFTR open reading frame comprising a premature TGA stop codon. In one embodiment, the TGA premature stop codon is a G542X mutation. In one embodiment, the modified CFTR DNA construct further comprises a nanoluciferase gene and a natural stop codon. In one embodiment, the modified CFTR mRNA construct molecule is hybridized to a single stranded DNA antisense oligo at the +8 nucleotide position downstream of a TGA premature stop codon. In one embodiment, the DNA antisense oligo is 5′-[…]-3′. See, FIG. 6.\n(§2) A 511-565 CFTR DNA expression vector construct was designed with several different codon configurations: i) a single wild type sense codon (“GGAG”) and a subsequent wild-type stop codon; ii) a premature stop codon “TGAG” comprising a G542X mutation (e.g., a strong stop codon); and iii) a premature stop codon “TGAC” comprising a G542X mutation (a weak stop codon) rendering an artificial readthrough-prone context. […] See, FIG. 7."}, "[3]": {"tested_on": "CAN1-luc expression construct premature stop codon", "experiment": "CAN1-luc expression construct readthrough (rabbit reticulocyte lysate)", "assay_type": "biochemical", "conditions": "oligo at +8 position downstream of premature stop codon", "description": "FIG. 4 illustrates one embodiment of a CAN1 arginine permease gene/luciferase expression construct (Can1-1uc). Upper panel: A schematic of the construct showing the relative position of a premature stop codon and a Can1 open reading frame and a luciferase gene with a natural terminal stop codon. Lower panel: A deoxyribonucleic acid sequence of the Can1-1uc construct with a TGA premature stop codon and a deoxyribonucleic acid oligo hybridized to the Can1-1uc construct at the +8 nucleotide position downstream of the premature stop codon.\nFIG. 5 presents exemplary data showing readthrough of a CAN1-1uc expression construct premature stop codon with a DNA oligo hybridized at the +8 nucleotide position downstream of the premature stop codon.\nThe DNA antisense oligos contemplated herein were validated using a DNA expression construct comprising a premature stop codon and a luciferase gene. The basic methodology was used a CAN1 gene expression construct encoding an arginine permease amino acid transporter protein. The CAN1 expression construct positions a […] premature stop codon at the terminus of the CAN1 open reading frame subsequently followed by a luciferase open reading frame. See, FIG. 4. The DNA antisense oligo +8(70) having the nucleic acid sequence of 5′-[…]-3′ was then positioned at the +8 nucleic acid position downstream of the first nucleotide of the premature stop codon. […]"}, "[4]": {"tested_on": "CFTR wild type construct without premature stop codon (GGAG)", "experiment": "511-565 CFTR nanoluciferase construct expression, wild type", "assay_type": "biochemical", "conditions": "increasing G418 concentrations", "description": "as §1\nFIG. 8 presents exemplary data showing the effect of the aminoglycoside G418 on 511-565 CFTR construct expression.\nas §2"}, "[5]": {"tested_on": "CFTR mRNA levels (NMD-mediator SMG1)", "experiment": "mRNA analysis by qPCR in CFF-16HBEge cell lines", "assay_type": "cell-based", "description": "The example presents the results of mRNA analysis by quantitative polymerase chain reaction and (qPCR) and protein analysis by Western Blot."}, "[6]": {"conditions": "experimental data; cited from earlier work"}}, "note": "“Also recorded” adds a separate entry of the source."}
{"molecule": "NC[C@H]1O[C@H](O[C@H]2[C@H](O)[C@@H](O[C@H]3O[C@H](CO)[C@@H](O)[C@H](N)[C@H]3O)[C@H](N)C[C@@H]2N)[C@H](N)C[C@@H]1O", "note": "[tobramycin]", "values": [{"measurement": "rise in NAG, once daily arm less than three times daily regimen", "setting": "[1]; adults and children", "value": 33, "unit": "%"}, {"measurement": "elimination rate, once daily versus three times daily group", "setting": "[1]; once daily group mostly dosed in the evening", "value": "lower elimination rate"}, {"measurement": "serum creatinine level during the course of treatment", "setting": "[1]; paediatric group, single daily dose, compared with a rise with three divided doses", "value": "decreased"}, {"measurement": "efficacy, single daily versus multiple daily dosing regimen", "setting": "[1]; patients with CF", "value": "equal efficacy"}]}
{"molecule": "TCCACTCAGTGTGATTCCAC^F (2'-fluoro at 20, other sugars and backbone not given here; one 2'-fluoro at 3'-terminal nucleotide) [+8(47) oligo withone 2′-fluoride modification]", "values": [{"measurement": "readthrough promotion by fluoride-modified oligos", "setting": "[2]", "value": "promote readthrough in an RRL assay with improved stability and/or efficiency"}]}
{"molecule": "5′-GCGCCGGGCCTTTCTTTATGTTTTTGGCGT-3′ (DNA, backbone and methylation of C not given here) [+8(70), DNA antisense oligo at +8 position of CAN1-luc construct]", "values": [{"measurement": "readthrough of premature stop codon in CAN1-luc construct", "setting": "[3]", "value": "increases readthrough of a premature stop codon"}]}
{"molecule": "CN[C@@H]1[C@@H](O)[C@@H](O[C@H]2[C@H](O)[C@@H](O[C@H]3O[C@H]([C@H](C)O)[C@@H](O)[C@H](O)[C@H]3N)[C@H](N)C[C@@H]2N)OC[C@]1(C)O", "note": "[G418]", "values": [{"measurement": "wild type sense codon (GGAG) construct expression, G418 alone", "setting": "[4]", "value": "inhibits wild type sense codon (GGAG) readthrough in a concentration-dependent manner; also recorded: decreases the expression of wild type construct"}, {"measurement": "premature stop codon readthrough, G418 alone", "setting": "[2]; UGAG and UGAC constructs, increasing G418 concentrations", "value": "promotes premature stop codon (UGAG and UGAC) readthrough in a concentration-dependent manner; also recorded: increasing expression of premature stop codon constructs"}, {"measurement": "readthrough rate at 0.5 μM and 0.1 μM G418 versus 1 μM G418", "setting": "[2]; weak (UGAC) and strong (UGAG) premature codon, +8(66) combination experiment (FIG. 9)", "value": "significantly higher readthrough rate"}]}
{"molecule": "CCN(CC)S(=O)(=O)c1cc(Nc2nccc(-c3ccnc(-c4ccc(NC(=O)NC)cc4)c3)n2)ccc1Cl", "note": "[SMG1i]", "values": [{"measurement": "CFTR WT mRNA", "setting": "[5]", "value": "smaller increase"}, {"measurement": "mRNA levels of the PTC alleles", "setting": "[5]", "value": "restores mRNA levels of the PTC alleles"}]}
{"molecule": "U^FCCAC^FTCAG^FTGTG^FATTC^FCAC^F", "values": [{"measurement": "readthrough promotion by fluoride-modified oligos", "setting": "[2]", "value": "promote readthrough in an RRL assay with improved stability and/or efficiency"}]}
{"molecule": "gentamicin", "values": [{"measurement": "relative toxicity among aminoglycosides", "setting": "[6]", "value": "more toxic than tobramycin and amikacin"}]}
